Reference: ChEMBL document CHEMBL1795286, “A concise synthesis and antimicrobial activities of 3-polyamino-23,24-bisnorcholanes as steroid-polyamine conjugates” (2011)

Columns and labels:
[1] = test system: Escherichia coli; assay: Antimicrobial activity against Escherichia coli ATCC 10536 after 18 hrs by twofold agar dilution method; assay type: functional; details: ATCC 10536, 18 h
[2] = test system: Serratia marcescens; assay: Antimicrobial activity against Serratia marcescens 1826E after 18 hrs by twofold agar dilution method; assay type: functional
[3] = test system: Staphylococcus aureus; assay: Antimicrobial activity against Staphylococcus aureus 77 after 18 hrs by twofold agar dilution method; assay type: functional; details: Staphylococcus aureus, 77, 18 h; read-out: MIC
[4] = test system: Staphylococcus aureus; assay: Antimicrobial activity against Staphylococcus aureus ATCC 6538P after 18 hrs by twofold agar dilution method; assay type: functional
[5] = test system: Enterobacter cloacae; assay: Antimicrobial activity against Enterobacter cloacae P99 after 18 hrs by twofold agar dilution method; assay type: functional; details: P99, 18 h
[6] = test system: Staphylococcus aureus; assay: Antimicrobial activity against Staphylococcus aureus 241 after 18 hrs by twofold agar dilution method; assay type: functional; details: Staphylococcus aureus, 241, 18 h; read-out: MIC
[7] = test system: Klebsiella aerogenes; assay: Antimicrobial activity against Klebsiella aerogenes harboring beta-lactamase SHV-1 1976E mutant after 18 hrs by twofold agar dilution method; assay type: functional
[8] = test system: Proteus vulgaris; assay: Antimicrobial activity against Proteus vulgaris 6059 after 18 hrs by twofold agar dilution method; assay type: functional; details: Proteus vulgaris, 6059, 18 h
[9] = test system: Moraxella catarrhalis; assay: Antimicrobial activity against Moraxella catarrhalis C2431 after 18 hrs by twofold agar dilution method; assay type: functional; details: C2431, 18 h, read-out: MIC
[10] = test system: Citrobacter koseri; assay: Antimicrobial activity against Citrobacter diversus 2046 after 18 hrs by twofold agar dilution method; assay type: functional; details: Citrobacter koseri, 2046, 18 h
[11] = test system: Klebsiella pneumoniae; assay: Antimicrobial activity against Klebsiella pneumoniae 2011E after 18 hrs by twofold agar dilution method; assay type: functional
[12] = test system: Escherichia coli; assay: Antimicrobial activity against Escherichia coli 3190Y after 18 hrs by twofold agar dilution method; assay type: functional
[13] = test system: Escherichia coli; assay: Antimicrobial activity against Escherichia coli ATCC 25922 after 18 hrs by twofold agar dilution method; assay type: functional; details: ATCC 25922, 18 h, read-out: MIC
[14] = test system: Salmonella typhimurium; assay: Antimicrobial activity against Salmonella Typhimurium ATCC 14028 after 18 hrs by two-fold agar dilution method; assay type: functional, Salmonella enterica subsp. enterica serovar Typhimurium; details: Salmonella enterica, ATCC 14028, 18 h
[15] = test system: Bacillus licheniformis; assay: Antimicrobial activity against Bacillus licheniformis EMR after 18 hrs by twofold agar dilution method; assay type: functional; details: read-out: MIC
[16] = test system: Salmonella typhimurium; assay: Antimicrobial activity against Salmonella typhimurium ATCC 13311 after 18 hrs by twofold agar dilution method; assay type: functional, Salmonella enterica subsp. enterica serovar Typhimurium; details: Salmonella enterica, ATCC 13311, 18 h
[17] = test system: Staphylococcus aureus; assay: Antimicrobial activity against Staphylococcus aureus giorgio after 18 hrs by twofold agar dilution method; assay type: functional
[18] = test system: Pseudomonas aeruginosa; assay: Antimicrobial activity against Pseudomonas aeruginosa 6065Y after 18 hrs by twofold agar dilution method; assay type: functional
[19] = test system: Citrobacter freundii; assay: Antimicrobial activity against Citrobacter freundii 8090 after 18 hrs by twofold agar dilution method; assay type: functional; details: Citrobacter freundii, 8090, 18 h
[20] = test system: Serratia marcescens; assay: Antimicrobial activity against Serratia marcescens ATCC 27117 after 18 hrs by twofold agar dilution method; assay type: functional; details: ATCC 27117, 18 h
[21] = test system: Staphylococcus aureus; assay: Antimicrobial activity against Staphylococcus aureus ATCC 25923 after 18 hrs by twofold agar dilution method; assay type: functional; details: ATCC 25923, 18 h, read-out: MIC
[22] = test system: Escherichia coli; assay: Antimicrobial activity against Escherichia coli 851E after 18 hrs by twofold agar dilution method; assay type: functional
[23] = test system: Bacillus subtilis; assay: Antimicrobial activity against Bacillus subtilis ATCC 6633 after 18 hrs by twofold agar dilution method; assay type: functional; details: ATCC 6633, 18 h
[24] = test system: Micrococcus luteus; assay: Antimicrobial activity against Micrococcus luteus ATCC 9341 after 18 hrs by twofold agar dilution method; assay type: functional; details: ATCC 9341, 18 h, read-out: MIC
[25] = test system: Morganella morganii; assay: Antimicrobial activity against Morganella morganii 1375E after 18 hrs by twofold agar dilution method; assay type: functional
[26] = test system: Moraxella catarrhalis; assay: Antimicrobial activity against Moraxella catarrhalis 25240 after 18 hrs by twofold agar dilution method; assay type: functional; details: Moraxella catarrhalis, 25240, 18 h
[27] = test system: Enterobacter cloacae; assay: Antimicrobial activity against Enterobacter cloacae ATCC 27508 after 18 hrs by twofold agar dilution method; assay type: functional; details: ATCC 27508, 18 h
[28] = test system: Acinetobacter calcoaceticus; assay: Antimicrobial activity against Acinetobacter calcoaceticus ATCC 15473 after 18 hrs by twofold agar dilution method; assay type: functional; details: ATCC 15473, 18 h
[29] = test system: Enterococcus faecalis; assay: Antimicrobial activity against Enterococcus faecalis ATCC 29212 after 18 hrs by twofold agar dilution method; assay type: functional; details: ATCC 29212, 18 h, read-out: MIC
[30] = test system: Staphylococcus epidermidis; assay: Antimicrobial activity against Staphylococcus epidermidis 887E after 18 hrs by twofold agar dilution method; assay type: functional; details: read-out: MIC
[31] = test system: Bacillus cereus; assay: Antimicrobial activity against Bacillus cereus ATCC 27348 after 18 hrs by twofold agar dilution method; assay type: functional; details: ATCC 27348, 18 h, read-out: MIC

C[C@H](CO)[C@H]1CC[C@H]2[C@@H]3[C@H](N)C[C@H]4C[C@@H](NCCCNCCCCN)CC[C@]4(C)[C@H]3CC[C@]12C.Cl.Cl.Cl
MIC [1]: > 32 µg/mL | MIC [2]: > 32 µg/mL | MIC [3]: 8 µg/mL | MIC [4]: 16 µg/mL | MIC [5]: > 32 µg/mL | MIC [6]: 16 µg/mL | MIC [7]: > 32 µg/mL | MIC [8]: > 32 µg/mL | MIC [9]: < 32 µg/mL | MIC [10]: > 32 µg/mL | MIC [11]: > 32 µg/mL | MIC [12]: > 32 µg/mL | MIC [13]: < 32 µg/mL | MIC [14]: > 32 µg/mL | MIC [15]: < 32 µg/mL | MIC [16]: > 32 µg/mL | MIC [17]: 32 µg/mL | MIC [18]: > 32 µg/mL | MIC [19]: > 32 µg/mL | MIC [20]: > 32 µg/mL | MIC [21]: 32 µg/mL | MIC [22]: > 32 µg/mL | MIC [23]: 16 µg/mL | MIC [24]: 16 µg/mL | MIC [25]: > 32 µg/mL | MIC [26]: > 32 µg/mL | MIC [27]: > 32 µg/mL | MIC [28]: > 32 µg/mL | MIC [29]: < 32 µg/mL | MIC [30]: 32 µg/mL | MIC [31]: < 32 µg/mL
